Test [1] deals with T1, TRPV4 (native, MHCC-97H cells) (Homo sapiens, UniProt Q9HBA0).
T1 construct: endogenous channel in human hepatocellular carcinoma MHCC-97H cells
The test can be described thus: Fluo-4 AM calcium influx, flow cytometry. It is filed as cell-based. The settings on record: inhibitor; 0.5 h pre-treatment; agonist GSK1016790A; adherent MHCC-97H cells.

Test [2] has as its target T2, TRPV4 (purified, fluorescently labeled) (Homo sapiens, UniProt Q9HBA0).
T2 construct: purified protein, fluorescently labeled for MST
The test can be described thus: microscale thermophoresis (Monolith NT.[…]). Format: binding. On the technique in general: Microscale thermophoresis detects binding through changes in fluorescence in a small temperature gradient.

The record followed here is PMC10300155, “Inhibition of TRPV4 remodels single cell polarity and suppresses the metastasis of hepatocellular carcinoma” (Cell Death & Disease, 2023).

T2 sequence (Q9HBA0 whole entry): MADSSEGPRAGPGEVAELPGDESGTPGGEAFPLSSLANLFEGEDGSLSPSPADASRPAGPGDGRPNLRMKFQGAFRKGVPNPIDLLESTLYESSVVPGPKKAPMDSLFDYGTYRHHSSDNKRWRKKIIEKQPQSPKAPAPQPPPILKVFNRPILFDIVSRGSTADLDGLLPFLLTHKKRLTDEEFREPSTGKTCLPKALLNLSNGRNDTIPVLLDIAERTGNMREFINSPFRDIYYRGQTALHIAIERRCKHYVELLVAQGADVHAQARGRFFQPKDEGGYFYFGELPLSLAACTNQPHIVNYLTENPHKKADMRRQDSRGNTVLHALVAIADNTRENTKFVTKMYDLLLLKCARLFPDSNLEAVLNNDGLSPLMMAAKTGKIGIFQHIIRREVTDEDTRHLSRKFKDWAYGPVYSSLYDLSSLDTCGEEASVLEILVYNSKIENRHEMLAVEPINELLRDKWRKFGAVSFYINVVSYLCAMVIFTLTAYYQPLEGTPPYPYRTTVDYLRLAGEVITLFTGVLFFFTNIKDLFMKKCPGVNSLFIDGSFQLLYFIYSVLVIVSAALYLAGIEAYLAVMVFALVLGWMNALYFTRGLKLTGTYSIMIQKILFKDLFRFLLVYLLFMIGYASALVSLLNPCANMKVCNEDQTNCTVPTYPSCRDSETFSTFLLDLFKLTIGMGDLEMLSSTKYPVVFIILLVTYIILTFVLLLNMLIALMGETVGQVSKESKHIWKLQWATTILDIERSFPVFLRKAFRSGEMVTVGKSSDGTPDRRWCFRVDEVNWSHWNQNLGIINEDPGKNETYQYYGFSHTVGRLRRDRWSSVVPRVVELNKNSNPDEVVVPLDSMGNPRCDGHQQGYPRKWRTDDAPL
T1 sequence (Q9HBA0 whole entry): as above

By Kd is commonly meant the constant that tells how readily two partners part at equilibrium. Lower therefore signals tighter binding. With `COc1c(OCCCCN2CCCC2)cc(O)c2c(=O)cc(-c3ccccc3)oc12` [GL-V9, 5-hydroxy-8-methoxy-2-phenyl-7-(4-(pyrro-lidin-1-yl)butoxy)4H-chromen-4-one], the “Fluo-4 AM calcium influx, flow cytometry” value in test [1] was “substantially reduced the calcium influx brought on by GSK1016790A”. This molecule also came in with a dissociation constant (Kd) in test [2] of 106 nM.
